Measured values: article PMC12155096 (International Journal of Molecular Sciences, 2025)
Structures can show the parent of a compound that is named as a salt. Where two headings read alike, the source gives them in different places. Each block holds one molecule with its values, some of them ahead of it.

Tests used:
human CYP2C9 [1] = molecular target: T1, human CYP2C9 (Homo sapiens, UniProt P11712); test: biochemical
human CYP1A2 [2] = molecular target: T2, human CYP1A2 (Homo sapiens, UniProt P05177); settings: for CYP1A2 Efficacy (in parenthesis): human
T2 sequence (P05177 1-516): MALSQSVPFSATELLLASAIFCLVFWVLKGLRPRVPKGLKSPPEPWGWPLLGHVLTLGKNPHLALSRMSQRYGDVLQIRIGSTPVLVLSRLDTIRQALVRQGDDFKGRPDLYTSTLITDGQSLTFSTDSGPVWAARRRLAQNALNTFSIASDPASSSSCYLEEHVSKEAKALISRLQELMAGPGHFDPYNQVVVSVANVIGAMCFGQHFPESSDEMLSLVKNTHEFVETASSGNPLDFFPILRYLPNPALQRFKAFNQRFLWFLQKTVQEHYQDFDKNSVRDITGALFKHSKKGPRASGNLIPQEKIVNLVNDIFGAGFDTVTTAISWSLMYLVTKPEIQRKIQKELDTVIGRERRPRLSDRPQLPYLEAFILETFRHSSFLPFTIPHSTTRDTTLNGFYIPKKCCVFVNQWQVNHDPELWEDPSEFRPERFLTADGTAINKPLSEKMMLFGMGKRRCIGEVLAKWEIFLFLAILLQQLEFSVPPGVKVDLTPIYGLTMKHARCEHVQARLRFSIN

human CYP2D6 [3] = molecular target: T3, human CYP2D6 (Homo sapiens, UniProt P10635); test: biochemical
human CYP2C19 [4] = molecular target: T4, human CYP2C19 (Homo sapiens, UniProt P33261); test: biochemical
[5] = molecular target: Photinus pyralis (firefly) luciferase (Photinus pyralis, UniProt P08659); test: biochemical; format: biochemical
human CYP1A2 [6] = molecular target: T2, human CYP1A2; test: biochemical
human CYP2C19 [7] = molecular target: T4, human CYP2C19; settings: for CYP2C19 Efficacy (in parenthesis): human
CYP3A4 = CYP3A4 (Homo sapiens, UniProt P08684)
human CYP2C9 [8] = molecular target: T1, human CYP2C9; settings: for CYP2C9 Efficacy (in parenthesis): human
human CYP2D6 [9] = molecular target: T3, human CYP2D6; settings: human
[10] = CYP2D6 AC50 (half-maximal activity concentration)
[11] = CYP2C9 IC50 (half-maximal inhibitory concentration)
[12] = CYP1A2 IC50 (half-maximal inhibitory concentration)
[13] = CYP2D6 IC50 (half-maximal inhibitory concentration)
[14] = CYP2C19 IC50 (half-maximal inhibitory concentration)

T4 sequence (P33261 whole entry): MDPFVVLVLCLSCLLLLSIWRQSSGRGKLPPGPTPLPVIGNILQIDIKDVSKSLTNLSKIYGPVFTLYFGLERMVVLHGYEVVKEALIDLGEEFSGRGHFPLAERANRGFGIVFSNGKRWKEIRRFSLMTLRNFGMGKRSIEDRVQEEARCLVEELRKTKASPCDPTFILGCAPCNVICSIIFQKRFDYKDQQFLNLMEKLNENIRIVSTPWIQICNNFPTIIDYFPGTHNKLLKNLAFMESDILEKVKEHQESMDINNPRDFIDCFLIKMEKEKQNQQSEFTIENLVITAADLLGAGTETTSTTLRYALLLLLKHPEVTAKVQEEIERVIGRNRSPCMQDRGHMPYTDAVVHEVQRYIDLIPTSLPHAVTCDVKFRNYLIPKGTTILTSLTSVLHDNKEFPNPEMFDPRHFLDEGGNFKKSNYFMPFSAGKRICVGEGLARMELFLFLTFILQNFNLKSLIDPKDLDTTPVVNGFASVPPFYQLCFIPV
T1 sequence (P11712 whole entry): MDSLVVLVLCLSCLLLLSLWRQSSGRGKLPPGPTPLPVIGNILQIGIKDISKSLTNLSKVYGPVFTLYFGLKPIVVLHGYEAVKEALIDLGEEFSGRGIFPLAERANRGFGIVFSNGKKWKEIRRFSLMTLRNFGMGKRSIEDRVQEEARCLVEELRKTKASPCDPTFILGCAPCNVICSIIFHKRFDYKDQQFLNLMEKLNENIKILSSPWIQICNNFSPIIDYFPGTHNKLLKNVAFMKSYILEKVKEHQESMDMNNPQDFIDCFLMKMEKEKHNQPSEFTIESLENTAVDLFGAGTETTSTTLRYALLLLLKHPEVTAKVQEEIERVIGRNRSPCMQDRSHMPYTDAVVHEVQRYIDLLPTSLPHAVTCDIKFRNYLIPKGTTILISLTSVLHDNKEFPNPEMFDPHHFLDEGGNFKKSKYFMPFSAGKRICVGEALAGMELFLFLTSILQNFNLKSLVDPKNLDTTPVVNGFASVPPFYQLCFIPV
T3 sequence (P10635 whole entry): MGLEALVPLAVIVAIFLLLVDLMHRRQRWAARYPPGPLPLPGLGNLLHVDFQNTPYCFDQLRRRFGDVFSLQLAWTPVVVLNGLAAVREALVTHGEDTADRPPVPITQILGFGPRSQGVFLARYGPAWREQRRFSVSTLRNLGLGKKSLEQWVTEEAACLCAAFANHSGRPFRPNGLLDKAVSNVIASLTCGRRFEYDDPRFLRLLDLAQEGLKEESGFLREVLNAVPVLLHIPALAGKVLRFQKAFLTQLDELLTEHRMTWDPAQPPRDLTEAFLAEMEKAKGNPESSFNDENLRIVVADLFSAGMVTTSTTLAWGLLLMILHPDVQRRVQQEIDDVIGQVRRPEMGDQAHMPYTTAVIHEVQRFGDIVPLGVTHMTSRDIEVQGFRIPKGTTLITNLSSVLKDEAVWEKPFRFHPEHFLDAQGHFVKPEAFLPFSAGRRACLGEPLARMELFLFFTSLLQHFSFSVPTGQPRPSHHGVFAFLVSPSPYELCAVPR
Sequence of Photinus pyralis (firefly) luciferase (P08659 whole entry): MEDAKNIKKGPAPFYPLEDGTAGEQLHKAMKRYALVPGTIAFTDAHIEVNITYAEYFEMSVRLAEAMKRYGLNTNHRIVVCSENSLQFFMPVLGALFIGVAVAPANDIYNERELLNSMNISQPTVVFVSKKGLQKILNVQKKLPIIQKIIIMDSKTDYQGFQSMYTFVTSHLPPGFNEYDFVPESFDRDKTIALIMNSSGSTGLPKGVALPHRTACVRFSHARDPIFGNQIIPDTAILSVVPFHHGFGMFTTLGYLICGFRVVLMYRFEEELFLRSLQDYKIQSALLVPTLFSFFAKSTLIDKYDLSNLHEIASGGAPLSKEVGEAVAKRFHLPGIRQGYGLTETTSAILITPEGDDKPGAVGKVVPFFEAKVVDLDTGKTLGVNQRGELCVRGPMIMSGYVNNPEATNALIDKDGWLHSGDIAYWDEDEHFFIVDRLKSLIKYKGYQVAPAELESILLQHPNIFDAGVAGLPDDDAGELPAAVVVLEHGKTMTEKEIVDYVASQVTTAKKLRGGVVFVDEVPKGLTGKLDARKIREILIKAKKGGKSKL
Sequence of CYP3A4 (P08684 whole entry): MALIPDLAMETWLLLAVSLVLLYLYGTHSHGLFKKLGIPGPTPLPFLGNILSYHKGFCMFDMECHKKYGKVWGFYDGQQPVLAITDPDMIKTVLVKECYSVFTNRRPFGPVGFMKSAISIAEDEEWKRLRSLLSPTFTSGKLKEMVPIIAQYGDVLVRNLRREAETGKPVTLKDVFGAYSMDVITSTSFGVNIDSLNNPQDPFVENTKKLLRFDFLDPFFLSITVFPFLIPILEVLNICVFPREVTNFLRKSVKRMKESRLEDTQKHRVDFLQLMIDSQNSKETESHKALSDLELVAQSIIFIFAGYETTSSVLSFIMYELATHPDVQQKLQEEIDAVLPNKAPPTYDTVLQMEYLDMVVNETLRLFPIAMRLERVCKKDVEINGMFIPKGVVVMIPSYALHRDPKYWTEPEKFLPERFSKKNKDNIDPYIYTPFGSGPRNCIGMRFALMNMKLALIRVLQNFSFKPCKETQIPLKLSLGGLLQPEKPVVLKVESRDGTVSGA

SMILES: CC(NCCC(c1ccccc1)c1ccccc1)c1ccccc1 (stereo not shown) [Fendiline hydrochloride]
IC50 (human CYP2C9 [1]; CYP2C9 IC50): 15.5 µM
CYP1A2 IC50 (human CYP1A2 [2]): Inactive
IC50 (human CYP2D6 [3]; CYP2D6 IC50): 0.23 µM
IC50 (human CYP2C19 [4]; CYP2C19 IC50): 5.65 µM
Luciferase IC50 [5]: Inactive

SMILES: N=C(N)N/N=C/c1c(Cl)cccc1Cl [Guanabenz]
AC50 (human CYP2C9 [1]; CYP2C9 AC50 (half-maximal activity concentration)): 37.7 µM
AC50 (human CYP1A2 [6]; CYP1A2 AC50 (half-maximal activity concentration)): 14.4 µM
AC50 (human CYP2D6 [3]; [10]): 13.8 µM
CYP2C19 AC50 (half-maximal activity concentration) (human CYP2C19 [7]): Inactive
CYP3A4 AC50 (half-maximal activity concentration) (CYP3A4): Inactive

SMILES: CCCCC(CC)CN1CN(CC(CC)CCCC)CC(C)(N)C1 (stereo not shown) [Hexetidine]
CYP2C9 IC50 (human CYP2C9 [8]): Inactive
CYP1A2 IC50 (human CYP1A2 [2]): Inactive
IC50 (human CYP2D6 [3]; CYP2D6 IC50): 0.48 µM
CYP2C19 IC50 (human CYP2C19 [7]): Inactive
Luciferase IC50 [5]: Inactive

SMILES: CN1CCCN(C(c2ccccc2)c2ccc(Cl)cc2)CC1 (stereo not shown) [Homochlorcyclizine]
CYP2C9 IC50 (human CYP2C9 [8]): Inactive
CYP1A2 IC50 (human CYP1A2 [2]): Inactive
IC50 (human CYP2D6 [3]; CYP2D6 IC50): 0.38 µM
IC50 (human CYP2C19 [4]; CYP2C19 IC50): 26.3 µM
Luciferase IC50 [5]: Inactive

AC50 (human CYP2C9 [1]): 49.3 µM
AC50 (human CYP1A2 [6]): 7.13 µM
AC50 (human CYP2D6 [3]): 61.4 µM
AC50 (human CYP2C19 [4]): 80 µM
CYP3A4 AC50 (half-maximal activity concentration) (CYP3A4): Inactive
SMILES: COC(=O)c1cc(Cl)ccc1[N+](=O)[O-] [Methyl 5-chloro-2-nitrobenzoate]

SMILES: COCC(=O)O[C@]1(CCN(C)CCCc2nc3ccccc3[nH]2)CCc2cc(F)ccc2[C@@H]1C(C)C [Mibefradil dihydrochloride]
CYP2C9 IC50 (human CYP2C9 [8]): Inactive
CYP1A2 IC50 (human CYP1A2 [2]): Inactive
IC50 (human CYP2D6 [3]; CYP2D6 IC50): 0.53 µM
IC50 (human CYP2C19 [4]): 38.9 µM
Luciferase IC50 [5]: Inactive

SMILES: Cc1ccc(N(CC2=NCCN2)c2cccc(O)c2)cc1 [Phentolamine mesilate]
CYP2C9 IC50 (human CYP2C9 [8]): Inactive
CYP1A2 IC50 (human CYP1A2 [2]): Inactive
IC50 (human CYP2D6 [3]; CYP2D6 IC50): 0.65 µM
IC50 (human CYP2C19 [4]; CYP2C19 IC50): 14.6 µM
Luciferase IC50 [5]: Inactive

SMILES: CN1CCC(=C2c3ccccc3CCc3sccc32)CC1 [Pizotifen]
CYP2C9 IC50 (human CYP2C9 [8]): Inactive
CYP1A2 IC50 (human CYP1A2 [2]): Inactive
AC50 (human CYP2D6 [3]; [10]): 0.96 µM
IC50 (human CYP2D6 [3]; CYP2D6 IC50): 0.96 µM
AC50 (human CYP2C19 [4]; CYP2C19 AC50 (half-maximal activity concentration)): 8.71 µM
IC50 (human CYP2C19 [4]; CYP2C19 IC50): 8.71 µM
Luciferase IC50 [5]: Inactive

SMILES: CCCC(C(=O)OCCN(CC)CC)(c1ccccc1)c1ccccc1 [Proadifen hydrochloride]
IC50 (human CYP2C9 [1]; CYP2C9 IC50): 12.1 µM
CYP1A2 IC50 (human CYP1A2 [2]): Inactive
IC50 (human CYP2D6 [3]; CYP2D6 IC50): 0.2 µM
IC50 (human CYP2C19 [4]; CYP2C19 IC50): 19.1 µM
Luciferase IC50 [5]: Inactive

SMILES: CCCN(CCc1cccs1)[C@H]1CCc2c(O)cccc2C1 [Rotigotine]
CYP2C9 Efficacy (in parenthesis) (human CYP2C9 [8]): 16.12 ± 1.09 (-56 ± 2) %
AC50 (human CYP2C9 [1]): 16.1 ± 1.09 µM
IC50 (human CYP2C9 [1]): 16.1 ± 1.09 µM
CYP1A2 Efficacy (in parenthesis) (human CYP1A2 [2]): 31.04 ± 3.57 (-46 ± 10) %
AC50 (human CYP1A2 [6]): 31 ± 3.57 µM
IC50 (human CYP1A2 [6]): 31 ± 3.57 µM
AC50 (human CYP2D6 [3]): 0.4 ± 0.09 µM
IC50 (human CYP2D6 [3]): 0.4 ± 0.09 µM
CYP2D6 Efficacy (in parenthesis) (human CYP2D6 [9]): 0.4 ± 0.09 (-102 ± 0) %
AC50 (human CYP2C19 [4]): 2.55 ± 0.17 µM
IC50 (human CYP2C19 [4]): 2.55 ± 0.17 µM
CYP2C19 Efficacy (in parenthesis) (human CYP2C19 [7]): 2.55 ± 0.17 (-115 ± 10) %

SMILES: O=C1NCN(c2ccccc2)C12CCN(CC1COc3ccccc3O1)CC2 (stereo not shown) [Spiroxatrine]
IC50 (human CYP2C9 [1]; CYP2C9 IC50): 10.8 µM
CYP1A2 IC50 (human CYP1A2 [2]): Inactive
IC50 (human CYP2D6 [3]; CYP2D6 IC50): 0.19 µM
IC50 (human CYP2C19 [4]; CYP2C19 IC50): 8.64 µM
Luciferase IC50 [5]: Inactive

SMILES: CN1CCC(N(Cc2cccs2)c2ccccc2)CC1 [Thenalidine]
CYP2C9 IC50 (human CYP2C9 [8]): Inactive
CYP1A2 IC50 (human CYP1A2 [2]): Inactive
AC50 (human CYP2D6 [3]; [10]): 0.53 µM
IC50 (human CYP2D6 [3]; CYP2D6 IC50): 0.53 µM
IC50 (human CYP2C19 [4]; CYP2C19 IC50): 36.8 µM
Luciferase IC50 [5]: Inactive

SMILES: Clc1ccc(C(Cn2ccnc2)OCc2ccsc2Cl)c(Cl)c1 (stereo not shown) [Tioconazole]
CYP2C9 Efficacy (in parenthesis) (human CYP2C9 [8]): 0.21 ± 0.09 (-104 ± 10) %
IC50 (human CYP2C9 [1]; [11]): 0.21 µM
CYP1A2 Efficacy (in parenthesis) (human CYP1A2 [2]): 4.61 ± 0.27 (-94 ± 11) %
IC50 (human CYP1A2 [6]; [12]): 4.61 µM
IC50 (human CYP2D6 [3]; [13]): 2.79 µM
CYP2D6 Efficacy (in parenthesis) (human CYP2D6 [9]): 2.79 ± 0.58 (-109 ± 6) %
IC50 (human CYP2C19 [4]; [14]): 0.25 µM
CYP2C19 Efficacy (in parenthesis) (human CYP2C19 [7]): 0.25 ± 0.09 (-140 ± 3) %

SMILES: Clc1ccc(Nc2nnc(Cc3ccncc3)c3ccccc23)cc1 [Vatalanib]
CYP2C9 Efficacy (in parenthesis) (human CYP2C9 [8]): 0.79 ± 0.66 (-96 ± 3) %
IC50 (human CYP2C9 [1]): 0.79 µM
CYP1A2 Efficacy (in parenthesis) (human CYP1A2 [2]): 2.03 ± 0.52 (-97 ± 14) %
IC50 (human CYP1A2 [6]; CYP1A2 IC50 (half-maximal inhibitory concentration), mean ± standard deviation from three experiments, qHTS): 2.03 ± 0.52 µM
IC50 (human CYP2D6 [3]): 5.98 µM
CYP2D6 Efficacy (in parenthesis) (human CYP2D6 [9]): 5.98 ± 9.87 (-107 ± 3) %
IC50 (human CYP2C19 [4]; CYP2C19 IC50 (half-maximal inhibitory concentration), mean ± standard deviation from three experiments, qHTS): 1.1 ± 0.95 µM
CYP2C19 Efficacy (in parenthesis) (human CYP2C19 [7]): 1.1 ± 0.95 (-157 ± 44) %

SMILES: N#C/C(=C1/SC[C@@H](c2ccc(Cl)cc2Cl)S1)n1ccnc1 [luliconazole, reference compound]
CYP2C9 Efficacy (in parenthesis) (human CYP2C9 [8]): 0.52 ± 0.12 (-109 ± 5) %
IC50 (human CYP2C9 [1]; [11]): 0.52 µM
CYP1A2 Efficacy (in parenthesis) (human CYP1A2 [2]): 0.33 ± 0.09 (-91 ± 7) %
IC50 (human CYP1A2 [6]; [12]): 0.33 µM
IC50 (human CYP2D6 [3]; [13]): 0.22 µM
CYP2D6 Efficacy (in parenthesis) (human CYP2D6 [9]): 0.22 ± 0.03 (-105 ± 2) %
IC50 (human CYP2C19 [4]; [14]): 0.46 µM
CYP2C19 Efficacy (in parenthesis) (human CYP2C19 [7]): 0.46 ± 0.08 (-137 ± 13) %
